The assay addresses T1, chicken gizzard smooth muscle myosin subfragment-1 chemically crosslinked to cardiac or skeletal actin (Gallus gallus, UniProt P10587).
T1 construct: chicken gizzard smooth muscle myosin subfragment-1; from tissue; host or cells: chicken gizzard
Kind of assay: Smooth muscle myosin ATPase dose response assay (pyruvate kinase/horseradish peroxidase/pyruvate oxidase-coupled, amplex red fluorescence). The class given is biochemical. Particulars: read-out: IC50 Arithmetic Mean. In outline:
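Chicken gizzard myosin S1 crosslinked to cardiac or skeletal actin, titrated to a set hydrolysis rate; 0.15 mM ATP, 12 mM PIPES pH 7.00, 100 mM KCl, 2 mM MgCl2. Pyruvate kinase/pyruvate oxidase/HRP coupling with amplex red fluorescence; IC50 from 4-parameter fit.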

T1 sequence (P02607 2-151): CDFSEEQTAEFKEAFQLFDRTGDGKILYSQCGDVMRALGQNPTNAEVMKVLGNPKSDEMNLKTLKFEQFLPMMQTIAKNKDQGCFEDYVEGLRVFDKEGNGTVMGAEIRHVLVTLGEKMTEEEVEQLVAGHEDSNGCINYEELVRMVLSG
T1 sequence (P10587 84-789): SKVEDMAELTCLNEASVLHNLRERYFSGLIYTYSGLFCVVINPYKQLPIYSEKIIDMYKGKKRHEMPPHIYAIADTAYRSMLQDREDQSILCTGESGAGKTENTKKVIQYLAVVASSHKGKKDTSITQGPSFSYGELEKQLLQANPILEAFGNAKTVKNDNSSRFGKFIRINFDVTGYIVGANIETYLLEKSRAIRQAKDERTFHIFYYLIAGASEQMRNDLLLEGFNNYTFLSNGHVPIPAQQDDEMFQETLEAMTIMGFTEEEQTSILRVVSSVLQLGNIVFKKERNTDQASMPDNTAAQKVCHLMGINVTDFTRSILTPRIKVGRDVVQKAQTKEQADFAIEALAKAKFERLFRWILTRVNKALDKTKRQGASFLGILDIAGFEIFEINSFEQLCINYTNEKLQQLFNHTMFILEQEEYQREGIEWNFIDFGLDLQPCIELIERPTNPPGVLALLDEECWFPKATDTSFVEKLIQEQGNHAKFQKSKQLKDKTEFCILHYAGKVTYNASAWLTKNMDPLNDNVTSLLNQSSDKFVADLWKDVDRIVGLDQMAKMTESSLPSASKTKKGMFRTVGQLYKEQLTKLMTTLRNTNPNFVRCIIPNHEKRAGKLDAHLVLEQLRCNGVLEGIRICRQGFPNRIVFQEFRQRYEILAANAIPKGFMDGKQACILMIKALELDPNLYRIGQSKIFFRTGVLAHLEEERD

As usually defined, the IC50 is the point on the concentration scale where inhibition reaches its midpoint. Regarding `CC(C)(C)OC(=O)NCCCN1CCCC1CNC(=O)c1ccc(-c2ccccc2C#N)nc1NCCc1cccc(F)c1` (stereo not drawn) [N-[(1-{3-[(tert-butoxy)carbonylamino]propyl}pyrrolidin-2-yl)methyl](6-(2-cyanophenyl)-2-{[2-(3-fluorophenyl)ethyl]amino}(3-pyridyl))carboxamide], the half-inhibitory concentration (IC50) was 2.08 µM.
The same measure for `CC(C)(C)OC(=O)N[C@H](CO)C(=O)N1CC[C@@H]1CNC(=O)c1ccc(-c2ccccc2C#N)nc1NCCc1cccc(F)c1` [N-[(1R)-2-((2R)-2-{[(6-(2-cyanophenyl)-2-{[2-(3-fluorophenyl)ethyl]amino}(3-pyridyl))carbonylamino]methyl}azetidinyl)-1-(hydroxymethyl)-2-oxoethyl](tert-butoxy)carboxamide]: 0.439 µM.
Take `C[C@@H](NC(=O)OC(C)(C)C)C(=O)N1CCC[C@@H]1CNC(=O)c1ccc(-c2ccccc2C#N)nc1NCCc1cccc(F)c1` [N-[(1R)-2-((2R)-2-{[(6-(2-cyanophenyl)-2-{[2-(3-fluorophenyl)ethyl]amino}(3-pyridyl))carbonylamino]methyl}pyrrolidinyl)-1-methyl-2-oxoethyl](tert-butoxy)carboxamide]: the half-maximal inhibitory concentration (IC50) was determined as 3.94 µM.
Consider `Cn1cc(-c2nc(NCCc3cccc(F)c3)c(C(=O)NCC3COC(C)(C)OC3)cc2F)cn1` [N-[(2,2-dimethyl(1,3-dioxan-5-yl))methyl](5-fluoro-2-{[2-(3-fluorophenyl)ethyl]amino}-6-(1-methylpyrazol-4-yl)(3-pyridyl))carboxamide], for which the 50% inhibitory concentration (IC50) worked out at 2.23 µM.
In the case of `CC1(C)OCC(CNC(=O)c2cc(F)c(-c3cn[nH]c3)nc2NCCc2cccc(F)c2)CO1` [N-[(2,2-dimethyl(1,3-dioxan-5-yl))methyl](5-fluoro-2-{[2-(3-fluorophenyl)ethyl]amino}-6-pyrazol-4-yl(3-pyridyl))carboxamide], the IC50 was found to be 0.927 µM.
The same measure for `CC1(C)OCC(CNC(=O)c2ccc(-c3ccccc3C#N)nc2NCCc2cccc(F)c2)CO1` [N-[(2,2-dimethyl(1,3-dioxan-5-yl))methyl](6-(2-cyanophenyl)-2-{[2-(3-fluorophenyl)ethyl]amino}(3-pyridyl))carboxamide]: 1.02 µM; for `N#Cc1ccccc1-c1ccc(C(=O)NCc2cccnc2N)c(NCCc2cccc(F)c2)n1` [N-[(2-amino(3-pyridyl))methyl](6-(2-cyanophenyl)-2-{[2-(3-fluorophenyl)ethyl]amino}(3-pyridyl))carboxamide]: 0.022 µM.
Then `N#Cc1ccccc1-c1ccc(C(=O)NCc2cccnc2Cl)c(NCCc2cccc(F)c2)n1` [N-[(2-chloro(3-pyridyl))methyl](6-(2-cyanophenyl)-2-{[2-(3-fluorophenyl)ethyl]amino}(3-pyridyl))carboxamide], with 0.072 µM.
Turning to `CC(C)(C)OC(=O)NCCc1ncccc1CNC(=O)c1ccc(-c2ccccc2C#N)nc1NCCc1cccc(F)c1` [N-[(2-{2-[(tert-butoxy)carbonylamino]ethyl}(3-pyridyl))methyl](6-(2-cyanophenyl)-2-{[2-(3-fluorophenyl)ethyl]amino}(3-pyridyl))carboxamide], the IC50 was determined as 0.47 µM.
Regarding `O=C(NCc1ccc(-c2ccccc2)nc1NCCc1cccc(F)c1)Nc1cccnc1` [N-[(2-{[2-(3-fluorophenyl)ethyl]amino}-6-phenyl(3-pyridyl))methyl](3-pyridylamino)carboxamide], the 50% inhibitory concentration (IC50) came out at 71 µM.
On to `Cc1cc(C(=O)NCc2cccnc2CNC(=O)OC(C)(C)C)c(NCCc2cccc(F)c2)nc1-c1cnn(C)c1` [N-[(2-{[(tert-butoxy)carbonylamino]methyl}(3-pyridyl))methyl](2-{[2-(3-fluorophenyl)ethyl]amino}-5-methyl-6-(1-methylpyrazol-4-yl)(3-pyridyl))carboxamide], for which the IC50 turned out to be 1.12 µM.
On to `CC(C)(C)OC(=O)NCc1ncccc1CNC(=O)c1ccc(-c2cnn(CCO)c2)nc1NCCc1cccc(F)c1` [N-[(2-{[(tert-butoxy)carbonylamino]methyl}(3-pyridyl))methyl](2-{[2-(3-fluorophenyl)ethyl]amino}-6-[1-(2-hydroxyethyl)pyrazol-4-yl](3-pyridyl))carboxamide], for which the IC50 was 15 µM.
Take `Cn1cc(-c2nc(NCCc3cccc(F)c3)c(C(=O)NCc3cccnc3CNC(=O)OC(C)(C)C)cc2Cl)cn1` [N-[(2-{[(tert-butoxy)carbonylamino]methyl}(3-pyridyl))methyl](5-chloro-2-{[2-(3-fluorophenyl)ethyl]amino}-6-(1-methylpyrazol-4-yl)(3-pyridyl))carboxamide]: the 50% inhibitory concentration (IC50) worked out at 0.414 µM.
The same measure for `Cn1cc(-c2nc(NCCc3cccc(F)c3)c(C(=O)NCc3cccnc3CNC(=O)OC(C)(C)C)cc2C#N)cn1` [N-[(2-{[(tert-butoxy)carbonylamino]methyl}(3-pyridyl))methyl](5-cyano-2-{[2-(3-fluorophenyl)ethyl]amino}-6-(1-methylpyrazol-4-yl)(3-pyridyl))carboxamide]: 0.75 µM.
Regarding `CC(C)(C)OC(=O)NCc1ncccc1CNC(=O)c1cc(C#N)c(-c2cn[nH]c2)nc1NCCc1cccc(F)c1` [N-[(2-{[(tert-butoxy)carbonylamino]methyl}(3-pyridyl))methyl](5-cyano-2-{[2-(3-fluorophenyl)ethyl]amino}-6-pyrazol-4-yl(3-pyridyl))carboxamide], the 50% inhibitory concentration (IC50) is 1 µM.
As for `Cn1cc(-c2nc(NCCc3cccc(F)c3)c(C(=O)NCc3cccnc3CNC(=O)OC(C)(C)C)cc2F)cn1` [N-[(2-{[(tert-butoxy)carbonylamino]methyl}(3-pyridyl))methyl](5-fluoro-2-{[2-(3-fluorophenyl)ethyl]amino}-6-(1-methylpyrazol-4-yl)(3-pyridyl))carboxamide], the IC50 is 0.388 µM.
Then `CC(C)(C)OC(=O)NCc1ncccc1CNC(=O)c1cc(F)c(-c2ccccn2)nc1NCCc1cccc(F)c1` [N-[(2-{[(tert-butoxy)carbonylamino]methyl}(3-pyridyl))methyl](5-fluoro-2-{[2-(3-fluorophenyl)ethyl]amino}-6-(2-pyridyl)(3-pyridyl))carboxamide], with 3.66 µM; and `CC(C)(C)OC(=O)NCc1ncccc1CNC(=O)c1cc(F)c(-c2cn[nH]c2)nc1NCCc1cccc(F)c1` [N-[(2-{[(tert-butoxy)carbonylamino]methyl}(3-pyridyl))methyl](5-fluoro-2-{[2-(3-fluorophenyl)ethyl]amino}-6-pyrazol-4-yl(3-pyridyl))carboxamide], with 0.488 µM.
The same measure for `CC(C)(C)OC(=O)NCc1ncccc1CNC(=O)c1ccc(-c2ccccc2C#N)nc1NCCc1cccc(F)c1` [N-[(2-{[(tert-butoxy)carbonylamino]methyl}(3-pyridyl))methyl](6-(2-cyanophenyl)-2-{[2-(3-fluorophenyl)ethyl]amino}(3-pyridyl))carboxamide]: 1.21 µM; for `Cc1cc(C(=O)NCc2cccnc2CNC(=O)OC(C)(C)C)c(NCCc2cccc(F)c2)nc1-c1ccccc1C#N` [N-[(2-{[(tert-butoxy)carbonylamino]methyl}(3-pyridyl))methyl](6-(2-cyanophenyl)-2-{[2-(3-fluorophenyl)ethyl]amino}-5-methyl(3-pyridyl))carboxamide]: 4.25 µM.
The same measure for `CC(C)(C)OC(=O)NCc1ncccc1CNC(=O)c1cc(F)c(-c2ccccc2C#N)nc1NCCc1cccc(F)c1` [N-[(2-{[(tert-butoxy)carbonylamino]methyl}(3-pyridyl))methyl](6-(2-cyanophenyl)-5-fluoro-2-{[2-(3-fluorophenyl)ethyl]amino}(3-pyridyl))carboxamide]: 5.36 µM.
With `CN[C@H](C)CNC(=O)c1ccc(-c2ccccc2C#N)nc1NCCc1cccc(F)c1` [N-[(2R)-2-(methylamino)propyl](6-(2-cyanophenyl)-2-{[2-(3-fluorophenyl)ethyl]amino}(3-pyridyl))carboxamide], the 50% inhibitory concentration (IC50) is 1.89 µM.
For the compound `CN[C@@H](C)CNC(=O)c1ccc(-c2ccccc2C#N)nc1NCCc1cccc(F)c1` [N-[(2S)-2-(methylamino)propyl](6-(2-cyanophenyl)-2-{[2-(3-fluorophenyl)ethyl]amino}(3-pyridyl))carboxamide], the IC50 turned out to be 0.944 µM.
Then `N#Cc1ccccc1-c1ccc(C(=O)NCc2ccc(F)c(F)c2)c(NCCc2cccc(F)c2)n1` [N-[(3,4-difluorophenyl)methyl](6-(2-cyanophenyl)-2-{[2-(3-fluorophenyl)ethyl]amino}(3-pyridyl))carboxamide], with 1.98 µM.
Then `N#Cc1ccccc1-c1ccc(C(=O)NCc2ccc(N)cn2)c(NCCc2cccc(F)c2)n1` [N-[(5-amino(2-pyridyl))methyl](6-(2-cyanophenyl)-2-{[2-(3-fluorophenyl)ethyl]amino}(3-pyridyl))carboxamide], with 0.021 µM; and `CC(C)(C)OC(=O)NCc1ccc(CNC(=O)c2ccc(-c3ccccc3C#N)nc2NCCc2cccc(F)c2)nc1` [N-[(5-{[(tert-butoxy)carbonylamino]methyl}(2-pyridyl))methyl](6-(2-cyanophenyl)-2-{[2-(3-fluorophenyl)ethyl]amino}(3-pyridyl))carboxamide], with 68.6 µM; and `N#Cc1ccccc1-c1ccc(C(=O)NCc2ccc(N)nc2)c(NCCc2cccc(F)c2)n1` [N-[(6-amino(3-pyridyl))methyl](6-(2-cyanophenyl)-2-{[2-(3-fluorophenyl)ethyl]amino}(3-pyridyl))carboxamide], with 0.026 µM.
The same measure for `O=C(NCc1cccc(Br)n1)c1ccc(-c2cn[nH]c2)nc1NCCc1cccc(F)c1` [N-[(6-bromo(2-pyridyl))methyl](2-{[2-(3-fluorophenyl)ethyl]amino}-6-pyrazol-4-yl(3-pyridyl))carboxamide]: 0.117 µM; for `N#Cc1ccccc1-c1ccc(C(=O)NCc2cccc(Br)n2)c(NCCc2cccc(F)c2)n1` [N-[(6-bromo(2-pyridyl))methyl](6-(2-cyanophenyl)-2-{[2-(3-fluorophenyl)ethyl]amino}(3-pyridyl))carboxamide]: 0.233 µM.
For the compound `N#Cc1ccccc1-c1ccc(C(=O)NCc2ccc(Cl)nc2)c(NCCc2cccc(F)c2)n1` [N-[(6-chloro(3-pyridyl))methyl](6-(2-cyanophenyl)-2-{[2-(3-fluorophenyl)ethyl]amino}(3-pyridyl))carboxamide], the IC50 stood at 1.79 µM.
